The record followed here is PMC12040169 (PLOS Biology, 2025).

A word on the viability: it is a read-out of living cells in per cent, often relative to untreated cells.

The first data set is described as follows: in vitro. The following applies: human, hela cells, % viability.
Consider `O=C(c1cccnc1)C1CCN(C(=O)Cc2ccc(F)cc2)CC1` [CBK283515], for which the viability at 28.5 h, 10 µM was 90.5%.

For `O=[N+]([O-])c1cnc(NS(=O)(=O)c2cccc(C(F)(F)F)c2)s1` [CBK067533], the viability at 28.5 h, 10 µM stood at 104%.

Turning to `O=S(=O)(Nc1cccnc1N1CCOCC1)c1ccc(F)cc1` [CBK051009], the viability at 28.5 h, 10 µM turned out to be 96.4%.

For the compound `CCCS(=O)(=O)N1CCN(C(=O)COc2ccc3ccccc3c2)CC1` [CBK264290], the viability at 28.5 h, 10 µM was 95.4%.

In the case of `CCOCCCC(=O)N1CCN(Cc2nnc3n2CCCCC3)CC1` [CBK305298], the viability at 28.5 h, 10 µM turned out to be 90.9%.

Turning to `CCOC(=O)NC(=O)c1ccccc1` [CBK012359], the viability at 28.5 h, 10 µM is 108%.

As to `CC(C)Oc1cccc(CNC(=O)c2ccc(C(C)(C)C)[nH]c2=O)c1` [CBK281415], the viability at 28.5 h, 10 µM is 92.2%.

Turning to `c1nc(NCCN2CCOCC2)c2c3c(sc2n1)CCCCC3` [CBK268418], the viability at 28.5 h, 10 µM turned out to be 103%.

In the case of `O=C(NC[C@H]1C[C@@H]2CC[N@]1C[C@@H]2CN1CCN(c2ncccn2)CC1)c1ccco1` [CBK289115], the viability at 28.5 h, 10 µM turned out to be 88.1%.

For the compound `Nn1cnn2c(SCC(=O)c3ccccc3)nnc12` [CBK263194], the viability at 28.5 h, 10 µM worked out at 99.8%.

On to `O=C(Nc1ccc(N2CCNCC2)nc1)C1CCCO1` (stereo not shown) [CBK004748T], for which the viability at 28.5 h, 10 µM amounted to 85.7%.

On to `CCC(CC)C(=O)N1CC[C@H]2NC(=O)N(Cc3ccccc3)C(=O)[C@H]21` [CBK289291], for which the viability at 28.5 h, 10 µM was 88.7%.

For `CCCc1cc(C(=O)N(C)CCOc2ccccc2)[nH]n1` [CBK283162], the viability at 28.5 h, 10 µM came out at 91.7%.

Consider `CCOC(=O)c1sc2cccc(F)c2c1COC(=O)c1ccc(CNC(N)=O)cc1` [CBK297873], for which the viability at 28.5 h, 10 µM turned out to be 101%.

For `CCc1cc(Br)ccc1S(=O)(=O)Nc1ccccc1O` [CBK043877], the viability at 28.5 h, 10 µM came to 92%.

On to `CCN(CC)Cc1cc([N+](=O)[O-])cc2c1OCOC2` [CBK296613], for which the viability at 28.5 h, 10 µM stood at 113%.

Turning to `Nc1cc2cccnc2nc1-c1cccnc1` [CBK067602], the viability at 28.5 h, 10 µM amounted to 84.8%.

Consider `Cc1ccc(Cc2cnc(NC(=O)N3CCC(O)C(F)(F)C3)s2)cc1C` (stereo not shown) [CBK304120], for which the viability at 28.5 h, 10 µM turned out to be 94.7%.

Regarding `NC1=C2NC(c3cccc(C(=O)O)c3)=NN2N(c2ccccc2)N1` [CBK093663], the viability at 28.5 h, 10 µM was 98.7%.

For the compound `COc1cccc2cc(C(=O)NCc3ccc(NS(C)(=O)=O)cc3)oc12` [CBK161479], the viability at 28.5 h, 10 µM amounted to 70.8%.

`CC1(Cn2ccnc2-c2ccccc2C(=O)O)CCCO1` (stereo not shown) [CBK307439]: the viability at 28.5 h, 10 µM was 88.8%.

Regarding `CN1CCN(c2ccc(NC(=O)c3cccc(-c4cc5ccccc5oc4=O)c3)cc2Cl)CC1` [CBK269689], the viability at 28.5 h, 10 µM was 83.5%.

For `Cc1cnc2c(C(=O)N3CC(C(=O)N4CCN(c5ccccc5)CC4)C3)cnn2c1` [CBK285641], the viability at 28.5 h, 10 µM stood at 92.4%.

Take `CC1c2ccsc2CCN1C(=O)CC(NC(N)=O)c1cccc(Br)c1` (stereo not shown) [CBK305635]: the viability at 28.5 h, 10 µM worked out at 110%.

`c1ccc(-c2ccccc2CN2CCN(c3nccnc3OCCN3CCOCC3)CC2)cc1` [CBK082893T]: the viability at 28.5 h, 10 µM came to 90.7%.

As for `O=C(O)CCc1ccc(S(=O)(=O)N2CCOCC2)cc1` [CBK287224], the viability at 28.5 h, 10 µM worked out at 90.1%.

Consider `CC(C)C(CCC(=O)Nc1ccccc1[N+](=O)[O-])C(=O)O` (stereo not shown) [CBK268356], for which the viability at 28.5 h, 10 µM is 86.3%.

Turning to `CCCn1ncc(CN2CCC(c3cc4cccnc4[nH]3)CC2)c1C` [CBK284949], the viability at 28.5 h, 10 µM came to 97.2%.

Turning to `O=S(=O)(CCc1ccccn1)N1CCC(Cc2ccccc2)CC1` [CBK043632], the viability at 28.5 h, 10 µM stood at 107%.

As to `N#C/C(=C\c1cccn1-c1ccc(S(N)(=O)=O)cc1)c1nc2ccccc2[nH]1` [CBK266167], the viability at 28.5 h, 10 µM amounted to 103%.

For the compound `CCOc1ccccc1N1CCN(C(=O)c2cc(-c3ccccc3C)nc3ccccc23)CC1` [CBK091950], the viability at 28.5 h, 10 µM was determined as 104%.

Consider `COc1ccc([C@@]23CC[C@@H](NC(=O)Nc4ccc(OC)c(C(F)(F)F)c4)C[C@@H]2N(C)CC3)cc1OC` [CBK051268T], for which the viability at 28.5 h, 10 µM stood at 107%.

In the case of `CC(Cc1ccccn1)NC(=O)C1CC2C=CC1C21CC1` (stereo not shown) [CBK282070], the viability at 28.5 h, 10 µM came to 90.7%.

Consider `CNS(=O)(=O)c1ccc(NC(=O)c2cc(-c3cccnc3)nc3ccc(Br)cc23)cc1` [CBK267776], for which the viability at 28.5 h, 10 µM is 95.5%.

As for `COCc1nc(NCCCn2c(C)cccc2=O)cc([C@H]2C[C@H](N)C2)n1` [CBK307337], the viability at 28.5 h, 10 µM was found to be 103%.

On to `Cn1cc(C(=O)N2CCC(c3ccccc3)C2)c2ccccc2c1=O` (stereo not shown) [CBK281921], for which the viability at 28.5 h, 10 µM was found to be 103%.

On to `CCc1nc2c(OCc3ccc(S(C)(=O)=O)cc3)cccn2c1N(CCOC)C(C)=O` [CBK147846], for which the viability at 28.5 h, 10 µM was found to be 87.4%.

Regarding `COCCN(Cc1cnn(C)c1)C(=O)NCc1nc2c(C)cccc2o1` [CBK307642], the viability at 28.5 h, 10 µM was 86.8%.

For the compound `Cn1ncc2c1CCCN(C(=O)COc1ccccc1F)C2` [CBK285324], the viability at 28.5 h, 10 µM worked out at 101%.

Take `CC(=O)NCCSc1cc(C(F)(F)F)ccn1` [CBK105297]: the viability at 28.5 h, 10 µM was 107%.

In the case of `COc1ccc(S(=O)(=O)NC[C@H]2C[C@@H]3CC[N@]2C[C@@H]3CN2CCCCC2)cc1` [CBK288764], the viability at 28.5 h, 10 µM stood at 98.9%.

Consider `O=S(=O)(Nc1ccc2[nH]ncc2c1)c1ccc(Br)cc1C(F)(F)F` [CBK062529], for which the viability at 28.5 h, 10 µM came to 100%.

`O=C(Cc1cccc(F)c1)N1CCOCC1` [CBK058928]: the viability at 28.5 h, 10 µM amounted to 83.9%.

For `CC1CCN(CC(C)(C)n2cncc2-c2cnn(C)c2)CC1` [CBK281738], the viability at 28.5 h, 10 µM amounted to 107%.

`COc1ccc(Cl)cc1NC(=O)C1CN(S(=O)(=O)c2ccccc2)CCN1S(=O)(=O)c1ccccc1` (stereo not shown) [CBK264000]: the viability at 28.5 h, 10 µM stood at 93.3%.

Turning to `CC1(C)CCCC1NC(=O)NCc1cccc(-c2nnc[nH]2)c1` (stereo not shown) [CBK305236], the viability at 28.5 h, 10 µM stood at 83.9%.

Consider `O=C(OCc1ccc(Br)cc1)c1ccccc1S(=O)(=O)c1ccccc1[N+](=O)[O-]` [CBK265718], for which the viability at 28.5 h, 10 µM is 92.2%.

`Cc1ccc(C(=O)C(OC(=O)CN2C(=O)c3cccc([N+](=O)[O-])c3C2=O)c2ccccc2)cc1C` (stereo not shown) [CBK265519]: the viability at 28.5 h, 10 µM is 109%.

Take `CSc1cccc(NC(=S)N2CCCCC2CCN2CCOCC2)c1` (stereo not shown) [CBK028765]: the viability at 28.5 h, 10 µM stood at 83.9%.

In the case of `COc1cccc2cc(C(=O)C3=C(O)C(=O)N(CCCN4CCOCC4)C3c3ccc(C)cc3)oc12` (stereo not shown) [CBK266420], the viability at 28.5 h, 10 µM came out at 106%.

Consider `NC1=NN2C(=C(c3ccc(O)c(C(=O)O)c3)NN2c2ccccc2)N1` [CBK025631], for which the viability at 28.5 h, 10 µM was determined as 95.2%.

In the case of `CCOC(=O)CSc1nnc(NS(=O)(=O)c2cccc(Cl)c2C)s1` [CBK004669], the viability at 28.5 h, 10 µM was 104%.

In the case of `CCOC(=O)c1cccnc1-c1ccc(OC)c(OC)c1` [CBK149240], the viability at 28.5 h, 10 µM stood at 94.2%.

Regarding `C=CCn1c(SCC(=O)Nc2cc(Cl)ccc2C)nnc1-c1ccccc1O` [CBK266867], the viability at 28.5 h, 10 µM was 94.5%.

Regarding `COC(=O)C(NC(=O)c1cnc(-c2cccc(C(F)(F)F)c2)c(-c2ccncc2)c1)c1ccccc1` (stereo not shown) [CBK037624], the viability at 28.5 h, 10 µM is 98.9%.

Consider `OC1(Cn2cnc3ccccc32)CCN(Cc2ccccc2F)CC1` [CBK284662], for which the viability at 28.5 h, 10 µM is 85.3%.

For `COc1ccc(CNC(=O)[C@H]2C=CCN2C(=O)c2cccs2)cc1` [CBK282325], the viability at 28.5 h, 10 µM stood at 103%.

Consider `O=C1C(n2c(=O)[nH]c3ccccc3c2=O)CCN1CC(F)(F)F` (stereo not shown) [CBK305264], for which the viability at 28.5 h, 10 µM is 104%.

As for `Nc1nc(OCc2ccncc2)cnc1-c1ccc(OC(F)(F)F)cc1` [CBK145121], the viability at 28.5 h, 10 µM stood at 99.8%.

Take `COCCn1c(CO)nnc1[C@H]1C[C@@H](NC(=O)c2ncc(F)cc2F)C1` [CBK307458]: the viability at 28.5 h, 10 µM turned out to be 106%.

With `O=C(NC(Cc1ccc(O)cc1)C(=O)O)c1ccccc1` (stereo not shown) [CBK260937], the viability at 28.5 h, 10 µM is 88.4%.

In the case of `O=C1NC[C@@H](Cc2ccccc2)NC(=O)C2(C/C=C/COc3ccccc31)CCN(Cc1ncccc1F)CC2` [CBK292193], the viability at 28.5 h, 10 µM was 111%.

On to `Cn1cc(CN2CCN(CC3(c4ccccc4)CC3)CC2)cn1` [CBK282794], for which the viability at 28.5 h, 10 µM is 109%.

In the case of `COc1ccc(-n2c(Cc3ccccc3)nnc2SCC(=O)c2ccccc2)cc1` [CBK265989], the viability at 28.5 h, 10 µM turned out to be 105%.

In the case of `FC(F)(F)c1cccc(OCCN2CCOCC2)n1` [CBK113289], the viability at 28.5 h, 10 µM turned out to be 105%.

Turning to `Nc1nnc(Sc2nccc(C(F)(F)F)n2)s1` [CBK020023], the viability at 28.5 h, 10 µM was determined as 99.5%.

On to `CCOC(=O)c1c(NC(=O)c2cc(-c3ccc(Cl)s3)nc3ccccc23)sc(C)c1CC` [CBK262657], for which the viability at 28.5 h, 10 µM was 107%.

Turning to `COc1ccc2ncc3c(c2c1)NCCNC3=O` [CBK291168], the viability at 28.5 h, 10 µM is 88.4%.

As to `CCNC(=O)Nc1ccc2c(-c3ccc4c(c3)CCO4)ccnc2n1` [CBK070673], the viability at 28.5 h, 10 µM was 96.2%.

`C[C@@H](Cn1nc(-c2cccs2)oc1=O)NC(=O)C1CCCC1` [CBK284337]: the viability at 28.5 h, 10 µM came out at 86.5%.

With `CN(C(=O)Cn1c(=O)n(C)c2ncccc21)C1CCCCC1` [CBK283791], the viability at 28.5 h, 10 µM stood at 81.5%.

As for `COc1ccc2c(c1)CC(=O)NC21CCN(CCCCC(C)C)CC1` [CBK039839], the viability at 28.5 h, 10 µM came out at 95.3%.

For `O=C(Nc1ccc2c(c1)CCO2)N1CCCC1c1nc(-c2ccccc2)c2ccccn12` (stereo not shown) [CBK046733], the viability at 28.5 h, 10 µM stood at 117%.

As to `Cc1cc(I)ccc1NC(=O)CCC(=O)N/N=C/c1ccco1` [CBK261991], the viability at 28.5 h, 10 µM was found to be 99.4%.

For `Cc1ccc2c(c1)nc(CNC(=O)NC1CCCc3cn[nH]c31)n2C` (stereo not shown) [CBK305554], the viability at 28.5 h, 10 µM was 77.5%.

As to `O=C(O)/C=C/c1ccc(CNS(=O)(=O)c2ccccc2)o1` [CBK286549], the viability at 28.5 h, 10 µM came out at 86%.

Turning to `OC1(c2cccnc2F)CCN(Cc2cccc(F)c2)CC1` [CBK284373], the viability at 28.5 h, 10 µM amounted to 85.5%.

As for `COc1ccc(CN2CCN(C(=O)c3ccccc3F)CC2)c(OC)c1` [CBK033601], the viability at 28.5 h, 10 µM turned out to be 125%.

Still in this data set, the particulars now being: human, hela cells, % viability, bulk resorufin, single well.
`CCOc1cc(C=C2C(=O)NC(=S)NC2=O)cc(Br)c1OCC(=O)O` [CBK265411]: the viability at 28.5 h, 10 µM was 98.4%.
